Test results: the NIST ThermoML archive (doi:10.1016/j.jct.2007.10.010)
Where “and” joins values, the source holds several entries; their conditions need not be identical. Identical values can stand only once. Numbers after ± are expanded uncertainties.

How the values were obtained:
[1] = 101 kPa, Liquid
[2] = refractive index (Na D-line) (dimensionless); conditions: 298.15 K; 101.33 kPa; Liquid; Standard Abbe refractometry
[3] = xn = mol fraction of the nth substance listed; conditions: 101 kPa, Liquid

CCCCCCCC [octane]
[1]
Conditions | mass density
298.15 K | 698.62 ± 0.62 kg/m3 [middle of 4 runs]
308.15 K | 690.44 ± 0.63 kg/m3 and 690.43 ± 0.63 kg/m3 and 690.45 ± 0.63 kg/m3
318.15 K | 682.47 ± 0.64 kg/m3 and 682.49 ± 0.64 kg/m3
328.15 K | 674.55 ± 0.66 kg/m3 and 674.56 ± 0.66 kg/m3 and 674.54 ± 0.66 kg/m3

Conditions | refractive index
[2] | 1.395 ± 0.0007

CCCCCCCC [octane] + Cc1cc(C)cc(C)c1
[3], x1 = 1
Conditions | mass density [kg/m3]
298.15 K | 698.62 ± 0.62
308.15 K | 690.45 ± 0.63
318.15 K | 682.49 ± 0.64
328.15 K | 674.54 ± 0.66

CCCCCCCC [octane] + Cc1cccc(C)c1
[3], x1 = 1
Conditions | mass density [kg/m3]
298.15 K | 698.63 ± 0.62
308.15 K | 690.43 ± 0.63
318.15 K | 682.49 ± 0.64
328.15 K | 674.56 ± 0.66

CCCCCCCC [octane] + Cc1ccccc1
mass density [kg/m3], [3]
Conditions | 298.15 K | 308.15 K | 318.15 K | 328.15 K
x1 = 0.0654 | 845.89 ± 0.37 | 836.6 ± 0.38 | – | –
x1 = 0.0675 | – | – | 826.95 ± 0.4 | 817.77 ± 0.41
x1 = 0.1229 | – | – | 814.22 ± 0.42 | 805.12 ± 0.43
x1 = 0.1283 | 831.23 ± 0.39 | 822.06 ± 0.41 | – | –
x1 = 0.1979 | 816.17 ± 0.42 | 807.1 ± 0.43 | – | –
x1 = 0.2052 | – | – | 796.69 ± 0.45 | 787.73 ± 0.46
x1 = 0.2524 | 805.13 ± 0.43 | 796.14 ± 0.45 | – | –
x1 = 0.2613 | – | – | 785.56 ± 0.47 | 776.68 ± 0.48
x1 = 0.312 | 793.74 ± 0.45 | 784.82 ± 0.47 | – | –
x1 = 0.3142 | – | – | 775.67 ± 0.48 | 766.87 ± 0.5
x1 = 0.3931 | 779.27 ± 0.48 | 770.46 ± 0.49 | – | –
x1 = 0.398 | – | – | 761 ± 0.51 | 752.32 ± 0.52
x1 = 0.4544 | 769.05 ± 0.5 | 760.31 ± 0.51 | – | –
x1 = 0.4553 | – | – | 751.61 ± 0.52 | 743.01 ± 0.54
x1 = 0.5388 | – | – | 738.82 ± 0.54 | 730.32 ± 0.56
x1 = 0.5409 | 755.59 ± 0.52 | 746.93 ± 0.53 | – | –
x1 = 0.6029 | 746.56 ± 0.53 | 737.98 ± 0.55 | – | –
x1 = 0.6078 | – | – | 728.94 ± 0.56 | 720.55 ± 0.57
x1 = 0.6679 | – | – | 720.81 ± 0.57 | 712.48 ± 0.59
x1 = 0.6717 | 737.09 ± 0.55 | 728.58 ± 0.56 | – | –
x1 = 0.7202 | 730.75 ± 0.56 | 722.3 ± 0.57 | – | –
x1 = 0.7262 | – | – | 713.32 ± 0.59 | 705.06 ± 0.6
x1 = 0.7985 | – | – | 704.51 ± 0.6 | 696.33 ± 0.62
x1 = 0.8064 | 720.08 ± 0.58 | 711.7 ± 0.59 | – | –
x1 = 0.863 | – | – | 697.07 ± 0.62 | 688.97 ± 0.63
x1 = 0.8727 | 712.36 ± 0.59 | 704.05 ± 0.61 | – | –
x1 = 0.9143 | – | – | 691.43 ± 0.63 | 683.39 ± 0.64
x1 = 0.9312 | 705.88 ± 0.61 | 697.62 ± 0.62 | – | –
x1 = 1 | 698.61 ± 0.62 | 690.44 ± 0.63 | 682.49 ± 0.64 | 674.55 ± 0.66

CCCCCCCC [octane] + c1ccccc1
[3]
Conditions | mass density [kg/m3]
298.15 K, x1 = 0.06831 | 850.82 ± 0.37
298.15 K, x1 = 0.1358 | 831.14 ± 0.4
298.15 K, x1 = 0.2041 | 813.51 ± 0.43
298.15 K, x1 = 0.2616 | 800.23 ± 0.45
298.15 K, x1 = 0.3322 | 785.49 ± 0.48
298.15 K, x1 = 0.3912 | 774.33 ± 0.49
298.15 K, x1 = 0.4581 | 762.82 ± 0.51
298.15 K, x1 = 0.5388 | 750.32 ± 0.53
298.15 K, x1 = 0.6054 | 740.95 ± 0.55
298.15 K, x1 = 0.664 | 733.37 ± 0.56
298.15 K, x1 = 0.7116 | 727.59 ± 0.57
298.15 K, x1 = 0.7979 | 717.91 ± 0.59
298.15 K, x1 = 0.8682 | 710.7 ± 0.6
298.15 K, x1 = 0.9264 | 705.15 ± 0.61
298.15 K, x1 = 1 | 698.6 ± 0.62
308.15 K, x1 = 0.06734 | 840.85 ± 0.39
308.15 K, x1 = 0.1335 | 821.8 ± 0.42
308.15 K, x1 = 0.1989 | 804.98 ± 0.44
308.15 K, x1 = 0.2562 | 791.81 ± 0.47
308.15 K, x1 = 0.3283 | 776.91 ± 0.49
308.15 K, x1 = 0.3888 | 765.56 ± 0.51
308.15 K, x1 = 0.4682 | 752.18 ± 0.53
308.15 K, x1 = 0.5284 | 742.95 ± 0.54
308.15 K, x1 = 0.5971 | 733.35 ± 0.56
308.15 K, x1 = 0.6592 | 725.32 ± 0.57
308.15 K, x1 = 0.7248 | 717.54 ± 0.59
308.15 K, x1 = 0.8156 | 707.74 ± 0.6
308.15 K, x1 = 0.8852 | 700.86 ± 0.61
308.15 K, x1 = 0.9515 | 694.77 ± 0.62
308.15 K, x1 = 1 | 690.44 ± 0.63
318.15 K, x1 = 0.06734 | 830.41 ± 0.4
318.15 K, x1 = 0.1335 | 811.7 ± 0.43
318.15 K, x1 = 0.1932 | 796.52 ± 0.46
318.15 K, x1 = 0.2511 | 783.28 ± 0.48
318.15 K, x1 = 0.3289 | 767.43 ± 0.5
318.15 K, x1 = 0.3937 | 755.54 ± 0.52
318.15 K, x1 = 0.4681 | 743.19 ± 0.54
318.15 K, x1 = 0.5302 | 733.8 ± 0.56
318.15 K, x1 = 0.5866 | 726.02 ± 0.57
318.15 K, x1 = 0.6709 | 715.36 ± 0.59
318.15 K, x1 = 0.7248 | 709.07 ± 0.6
318.15 K, x1 = 0.8156 | 699.39 ± 0.62
318.15 K, x1 = 0.8852 | 692.61 ± 0.63
318.15 K, x1 = 0.9515 | 686.61 ± 0.64
318.15 K, x1 = 1 | 682.47 ± 0.64
328.15 K, x1 = 0.06734 | 820.09 ± 0.42
328.15 K, x1 = 0.1335 | 801.67 ± 0.45
328.15 K, x1 = 0.1932 | 786.83 ± 0.47
328.15 K, x1 = 0.2511 | 773.79 ± 0.49
328.15 K, x1 = 0.3289 | 758.15 ± 0.52
328.15 K, x1 = 0.3937 | 746.47 ± 0.54
328.15 K, x1 = 0.4681 | 734.35 ± 0.56
328.15 K, x1 = 0.5302 | 725.13 ± 0.57
328.15 K, x1 = 0.5866 | 717.46 ± 0.58
328.15 K, x1 = 0.6709 | 706.93 ± 0.6
328.15 K, x1 = 0.7248 | 700.75 ± 0.61
328.15 K, x1 = 0.8156 | 691.2 ± 0.63
328.15 K, x1 = 0.8852 | 684.52 ± 0.64
328.15 K, x1 = 0.9515 | 678.62 ± 0.65
328.15 K, x1 = 1 | 674.54 ± 0.66

Cc1ccccc1 [toluene]
[1]
Conditions | mass density [kg/m3]
298.15 K | 862.29 ± 0.34
308.15 K | 852.86 ± 0.36
318.15 K | 843.6 ± 0.37
328.15 K | 834.29 ± 0.39

Conditions | refractive index
[2] | 1.4941 ± 0.0007

Cc1ccccc1 [toluene] + CCCCCCCC
[3], x2 = 0
Conditions | mass density [kg/m3]
298.15 K | 862.29 ± 0.34
308.15 K | 852.86 ± 0.36
318.15 K | 843.6 ± 0.37
328.15 K | 834.29 ± 0.39
